Reference: DBAASP
Values after ≈ are worked out from the molar mass of the structure shown.

Key:
Assay in all cases: ≥ marks a high value that may be exact or a test limit, other limits are often not marked, values filed in µg/mL are converted to µM
[1] = test system: Klebsiella pneumoniae ATCC 13883
Klebsiella pneumoniae = test system: Klebsiella pneumoniae
[2] = test system: Pseudomonas aeruginosa ATCC 27853
Acinetobacter baumannii = test system: Acinetobacter baumannii
Escherichia coli = test system: Escherichia coli
Staphylococcus aureus = test system: Staphylococcus aureus
Pseudomonas aeruginosa = test system: Pseudomonas aeruginosa
[3] = test system: Acinetobacter baumannii ATCC 19606
[4] = test system: Staphylococcus aureus ATCC 25923
[5] = test system: Escherichia coli ATCC 25922
[6] = test system: Candida albicans ATCC 10231
[7] = test system: Staphylococcus aureus ATCC 29213
[8] = test system: Escherichia coli KCTC 1682
[9] = test system: Salmonella typhimurium KCTC 1926
[10] = test system: Staphylococcus epidermidis KCTC 1917
[11] = test system: Bacillus subtilis KCTC 3068
[12] = test system: Staphylococcus aureus KCTC 1621
[13] = test system: Pseudomonas aeruginosa KCTC 1637
Bacillus cereus = test system: Bacillus cereus
[14] = test system: Staphylococcus aureus ATCC 43300
[15] = test system: Enterococcus faecalis ATCC 29212
[16] = test system: Salmonella enterica subsp. enterica serovar Typhimurium ATCC 14028

Row | MIC [2] | MIC (Escherichia coli) | MIC [8] | MIC [9] | MIC [10] | MIC [11] | MIC [12] | MIC [13] | SMILES | also measured
1 | > 64 µM | > 64 µM | – | – | – | – | – | – | CC[C@H](C)[C@H](NC(=O)[C@H](CCCCN)NC(=O)CNC(=O)[C@H](C)NC(=O)[C@H](CCCCN)NC(=O)CNC(=O)[C@H](C)NC(=O)[C@@H](NC(=O)[C@H](CCCCN)NC(=O)[C@H](C)NC(=O)[C@@H](NC(=O)[C@H](CCCCN)NC(=O)CNC(=O)[C@H](C)NC(=O)[C@H](CCCCN)NC(=O)CNC(=O)[C@H](C)NC(=O)[C@@H](NC(=O)[C@@H](N)CCCCN)[C@@H](C)CC)[C@@H](C)CC)[C@@H](C)CC)C(=O)N[C@@H](C)C(N)=O [KIAGKAGKIAKIAGKAGKIA] | MIC [1]: ≥ 64 µM; MIC (Klebsiella pneumoniae): > 64 µM; MIC (Acinetobacter baumannii): ≥ 64 µM; MIC (Staphylococcus aureus): > 64 µM; MIC (Pseudomonas aeruginosa): > 64 µM; MIC [3]: > 64 µM; MIC [4]: > 64 µM; MIC [5]: > 64 µM
2 | 5.86 µM (≈ 12.2 µg/mL) | – | – | – | – | – | – | – | CC(C)C[C@H](NC(=O)[C@H](CCCCN)NC(=O)[C@@H]1CCCN1C(=O)[C@H](CC(C)C)NC(=O)[C@H](CC(C)C)NC(=O)CNC(=O)[C@H](CCCCN)NC(=O)[C@H](CC(C)C)NC(=O)[C@H](CCCCN)NC(=O)[C@@H]1CCCN1C(=O)[C@H](CC(C)C)NC(=O)[C@H](CC(C)C)NC(=O)[C@H](CC(C)C)NC(=O)[C@H](CCCCN)NC(=O)[C@H](CC(C)C)NC(=O)[C@H](CC(C)C)NC(=O)[C@H](CCCCN)NC(=O)[C@@H](N)Cc1ccc(O)cc1)C(N)=O [YKLLKLLLPKLKGLLPKL] | MIC [6]: 40 µM (≈ 83.6 µg/mL); MIC [7]: 5.93 µM (≈ 12.4 µg/mL)
3 | – | – | ≥ 32.5 µM | 16.2 µM (≈ 25 µg/mL) | 16.2 µM (≈ 25 µg/mL) | ≥ 32.5 µM | 16.2 µM (≈ 25 µg/mL) | 16.2 µM (≈ 25 µg/mL) | CC[C@H](C)[C@H](NC(=O)[C@H](CCCCN)NC(=O)[C@H](Cc1c[nH]c2ccccc12)NC(=O)[C@H](CC(C)C)NC(=O)[C@@H](N)CCCCN)C(=O)N[C@H](C(=O)N[C@H](C(=O)N[C@H](C(=O)N[C@@H](CCCCN)C(=O)N[C@H](C(=O)N[C@@H](Cc1c[nH]c2ccccc12)C(=O)N[C@@H](CCCCN)C(N)=O)C(C)C)[C@@H](C)CC)C(C)C)C(C)C [KLWKIVVIKVWK] | –
4 | – | 117 µM (≈ 256 µg/mL) | – | – | – | – | – | – | CC(C)C[C@H](NC(=O)[C@H](CCCCN)NC(=O)[C@H](Cc1ccccc1)NC(=O)[C@@H](NC(=O)[C@@H](NC(=O)CNC(=O)[C@H](CC(C)C)NC(=O)[C@@H](N)Cc1ccccc1)C(C)C)C(C)C)C(=O)N[C@H](C(=O)N[C@@H](CO)C(=O)N[C@@H](CCCCN)C(=O)N[C@H](C(=O)N[C@@H](Cc1ccccc1)C(=O)N1CCC[C@H]1C(=O)N[C@@H](C)C(=O)N[C@H](C(=O)N[C@@H](Cc1ccccc1)C(=O)NCC(=O)N[C@@H](CCCCN)C(=O)N[C@H](C(=O)O)C(C)C)C(C)C)C(C)C)C(C)C [FLGVVFKLVSKVFPAVFGKV] | MIC (Staphylococcus aureus): 3.67 µM (≈ 8 µg/mL); MIC (Bacillus cereus): 7.33 µM (≈ 16 µg/mL)
5 | – | – | 8 µM (≈ 18.8 µg/mL) | 4 µM (≈ 9.42 µg/mL) | 8 µM (≈ 18.8 µg/mL) | 2 µM (≈ 4.71 µg/mL) | 8 µM (≈ 18.8 µg/mL) | 8 µM (≈ 18.8 µg/mL) | CC[C@H](C)[C@H](N)C(=O)NCC(=O)N[C@@H](CCCCN)C(=O)N[C@@H](CC(C)C)C(=O)N[C@@H](Cc1ccccc1)C(=O)N[C@@H](CCCCN)C(=O)N[C@@H](CCCN=C(N)N)C(=O)N[C@H](C(=O)N[C@H](C(=O)N[C@@H](CCC(N)=O)C(=O)N[C@@H](CCCN=C(N)N)C(=O)N[C@H](C(=O)N[C@@H](CC(C)C)C(=O)N[C@@H](CCCCN)C(=O)N[C@@H](Cc1ccccc1)C(=O)N[C@@H](CC(C)C)C(=O)N[C@@H](CCCN=C(N)N)C(=O)N[C@@H](CC(N)=O)C(=O)N[C@@H](CC(C)C)C(=O)O)[C@@H](C)CC)C(C)C)[C@@H](C)CC [IGKLFKRIVQRILKFLRNL] | –
6 | > 113 µM | – | – | – | – | – | – | – | CC(C)[C@H](NC(=O)CN)C(=O)N[C@@H](CO)C(=O)NCC(=O)N[C@@H](Cc1cnc[nH]1)C(=O)NCC(=O)N[C@@H](CCC(N)=O)C(=O)N[C@@H](Cc1cnc[nH]1)C(=O)NCC(=O)N[C@H](C(=O)N[C@@H](Cc1cnc[nH]1)C(=O)NCC(=O)O)C(C)C [GVSGHGQHGVHG] | MIC [6]: > 113 µM; MIC [14]: > 113 µM; MIC [15]: > 113 µM; MIC [5]: > 113 µM
7 | – | – | 8.78 µM (≈ 12.5 µg/mL) | 2.2 µM (≈ 3.13 µg/mL) | 2.2 µM (≈ 3.13 µg/mL) | 8.78 µM (≈ 12.5 µg/mL) | 8.78 µM (≈ 12.5 µg/mL) | 17.6 µM (≈ 25 µg/mL) | CC[C@H](C)[C@H](NC(=O)[C@H](CCCCN)NC(=O)[C@H](CCCCN)NC(=O)[C@H](CC(C)C)NC(=O)[C@@H](N)CCCCN)C(=O)N[C@H](C(=O)N[C@H](C(=O)N[C@H](C(=O)N[C@@H](CCCCN)C(=O)N[C@H](C(=O)N[C@@H](CCCCN)C(=O)N[C@@H](CCCCN)C(N)=O)C(C)C)[C@@H](C)CC)C(C)C)C(C)C [KLKKIVVIKVKK] | –
8 | – | > 129 µM | – | – | – | – | – | – | CC[C@H](C)[C@H](NC(=O)[C@H](C)NC(=O)[C@H](CO)NC(=O)[C@H](Cc1ccccc1)NC(=O)[C@@H](NC(=O)[C@H](CO)NC(=O)[C@@H]1CCCN1C(=O)[C@@H](NC(=O)[C@@H](NC(=O)[C@H](CCCCN)NC(=O)[C@H](CO)NC(=O)[C@H](C)NC(=O)[C@@H](NC(=O)CNC(=O)[C@H](Cc1ccccc1)NC(=O)[C@@H](NC(=O)[C@H](C)NC(=O)CN)C(C)C)C(C)C)C(C)C)C(C)C)C(C)C)C(=O)N[C@@H](CCCCN)C(=O)N[C@@H](CCCCN)C(=O)O [GAVFGVASKVVPSVFSAIKK] | MIC (Bacillus cereus): ≥ 129 µM
9 | – | – | 2 µM (≈ 3.39 µg/mL) | 2 µM (≈ 3.39 µg/mL) | 2 µM (≈ 3.39 µg/mL) | 4 µM (≈ 6.78 µg/mL) | 4 µM (≈ 6.78 µg/mL) | 2 µM (≈ 3.39 µg/mL) | CC[C@H](C)[C@H](NC(=O)[C@H](CCCN=C(N)N)NC(=O)[C@H](CCCCN)NC(=O)[C@H](CCCN=C(N)N)NC(=O)[C@@H](NC(=O)[C@H](CCCN=C(N)N)NC(=O)[C@@H](N)CCCCN)[C@@H](C)CC)C(=O)N[C@@H](CCCCN)C(=O)N[C@@H](CCCCN)C(=O)N[C@@H](Cc1c[nH]c2ccccc12)C(=O)N[C@@H](CCCCN)C(=O)N[C@@H](CCCN=C(N)N)C(N)=O [KRIRKRIKKWKR] | –
10 | – | > 127 µM | – | – | – | – | – | – | CC[C@H](C)[C@H](NC(=O)[C@H](CC(C)C)NC(=O)CNC(=O)[C@@H](NC(=O)[C@@H](NC(=O)[C@H](C)NC(=O)[C@@H]1CCCN1C(=O)[C@@H](NC(=O)[C@@H](NC(=O)[C@H](CCCCN)NC(=O)[C@H](CO)NC(=O)[C@H](C)NC(=O)[C@H](CC(C)C)NC(=O)[C@H](CO)NC(=O)[C@H](Cc1ccccc1)NC(=O)[C@H](CC(C)C)NC(=O)[C@H](C)NC(=O)CN)C(C)C)C(C)C)C(C)C)[C@@H](C)CC)C(=O)N[C@@H](CCCCN)C(=O)N[C@@H](CCCCN)C(=O)O [GALFSLASKVVPAVIGLIKK] | MIC (Bacillus cereus): ≥ 127 µM
11 | 28.6 µM (≈ 63.6 µg/mL) | – | – | – | – | – | – | – | CC(C)C[C@H](NC(=O)[C@H](CCCCN)NC(=O)[C@H](CCC(=O)O)NC(=O)[C@H](CC(C)C)NC(=O)[C@H](CC(C)C)NC(=O)[C@H](C)NC(=O)[C@H](CCCCN)NC(=O)[C@H](CC(C)C)NC(=O)[C@H](CCCCN)NC(=O)[C@H](CC(C)C)NC(=O)[C@H](CC(C)C)NC(=O)[C@H](CC(C)C)NC(=O)[C@H](Cc1c[nH]c2ccccc12)NC(=O)[C@H](CCCCN)NC(=O)[C@H](CC(C)C)NC(=O)[C@H](CC(C)C)NC(=O)[C@H](CCCCN)NC(=O)[C@@H](N)Cc1ccc(O)cc1)C(N)=O [YKLLKWLLLKLKALLEKL] | MIC [6]: > 76.3 µM; MIC [7]: 38.1 µM (≈ 84.8 µg/mL)
12 | – | – | – | – | – | – | – | – | CC(C)C[C@H](NC(=O)[C@H](CC(C)C)NC(=O)[C@H](CCCN=C(N)N)NC(=O)[C@H](CCCN=C(N)N)NC(=O)[C@H](C)NC(=O)[C@H](Cc1c[nH]c2ccccc12)NC(=O)CNC(=O)[C@H](CCCN=C(N)N)NC(=O)[C@@H](N)CCCN=C(N)N)C(=O)N[C@@H](CCCN=C(N)N)C(=O)N[C@@H](C)C(=O)N[C@@H](Cc1ccccc1)C(=O)N[C@@H](C)C(=O)N[C@@H](Cc1ccccc1)C(=O)NCC(=O)N[C@@H](CCCN=C(N)N)C(=O)N[C@@H](CCCN=C(N)N)C(N)=O [RRGWARRLLRAFAFGRR] | MIC [1]: 30 µM (≈ 64.3 µg/mL); MIC [16]: 2.9 µM (≈ 6.22 µg/mL); MIC [3]: 2.7 µM (≈ 5.79 µg/mL); MIC [4]: > 30 µM
